{"source": "patent US4555525A", "about": "“Use of desethyl-N-acetylprocainamide (NAPADE) as an inotropic agent” (Administrators of the Tulane Educational Fund, priority 1984, dated 1985)", "key": {"[1]": {"details": "mice; cited from earlier work"}, "[2]": {"assay": "NAPADE pharmacokinetics in chloralose-urethane anesthetized dogs (HPLC plasma levels, two-compartment model)", "assay_type": "in vivo, dog (male mongrel)", "protocol": "Blood samples were obtained over a period of 5-120 minutes to measure NAPADE plasma concentration by high-performance liquid chromatography (HPLC) and to construct a plasma concentration versus time curve of FIG. 1.\nThe pharmacokinetics of NAPADE were analyzed with a two-compartment model with elimination from the central compartment. The method of residuals was used to resolve the exponential components of each plasma concentration versus time curve and to obtain estimates of alpha and beta (first-order rate constants) and A and B intercepts corrected to 0-time using the method of Loo and Reigelman. These parameters were then used to estimate apparent volume of distribution (V central, V peripheral, V total) and clearance values (Cl intercompartmental, Cl elimination) for each dog according to standard pharmacokinetic methodology."}, "cardiac muscle [3]": {"tested_on": "cardiac muscle", "assay": "Cardiovascular effects in chloralose-urethane anesthetized dogs (myocardial force, heart rate, mean arterial pressure)", "assay_type": "in vivo, dog (male mongrel)", "text": "We have investigated the cardiovascular effects of NAPADE in animal models and have observed the following unique properties of NAPADE: […]\n(§1) Myocardial force, mean arterial pressure and heart rate are expressed as the percent change from baseline for each experimental group. Statistical analysis was done with analysis of variance for repeated measurements and Duncan's multiple range test. All values are mean ± SEM."}, "β-adrenergic receptor": {"tested_on": "β-adrenergic receptor", "assay": "Cardiovascular effects of NAPADE after pretreatment with propranolol in anesthetized dogs", "assay_type": "in vivo, dog (male mongrel)", "text": "as §1"}, "cardiac muscle [4]": {"tested_on": "cardiac muscle", "assay": "NAPA effect after pretreatment with propranolol", "assay_type": "in vivo"}, "[5]": {"details": "cited from earlier work"}, "cardiac muscle [6]": {"tested_on": "cardiac muscle", "assay": "Cardiovascular effects of procainamide and NAPA, for comparison with NAPADE", "assay_type": "in vivo", "details": "procainamide or NAPA; for effect on force of contraction of the heart muscle (inotropic effect): procainamide at 60 mg/kg i.v. as a 15 minute infusion, 60 mg/kg"}, "[7]": {"details": "NAPADE-HCl 60 mg/kg, 15-minute IV infusion"}, "[8]": {"details": "individual dogs No. 1-8, one line per dog, NAPADE-HCl 60 mg/kg, 15-minute IV infusion, 60 mg/kg"}, "[9]": {"details": "NAPADE-HCl 60 mg/kg IV after propranolol 0.5 mg/kg followed by 10 μg/kg/min"}}, "note": "“And” between values parts separate entries of the source, which are not always exact repeats. Identical values can stand only once. “Also recorded” adds a separate entry of the source. Like-named read-outs stand apart in the source and are kept apart here."}
{"compound": "CCNCCNC(=O)c1ccc(NC(C)=O)cc1", "note": "[NAPADE, Desethyl-N-acetylprocainamide]", "values": [{"measurement": "antifibrillatory activity", "setting": "[1]", "value": "antifibrillatory activity"}, {"measurement": "decline of plasma concentrations / kinetics of elimination", "setting": "[2]; [7]", "value": "declined in a bi-exponential fashion; also recorded: bi-exponential kinetics of elimination"}, {"measurement": "apparent volume of distribution, NAPADE as a fraction of NAPA value", "setting": "[2]; compared with NAPA from previous studies", "value": "approximately one-third"}, {"measurement": "half-life", "setting": "[2]; dog, plasma, iv, 60 mg/kg, individual dogs No. 1-8, one line per dog, NAPADE-HCl 60 mg/kg, 15-minute IV infusion, read-out: T1/2(BETA) (elimination half-life)", "value": 55, "unit": "min"}, {"measurement": "half-life", "setting": "[2]; dog, plasma, iv, 60 mg/kg, mean of 8 dogs (± SEM in text), NAPADE-HCl 60 mg/kg, 15-minute IV infusion, read-out: T1/2 beta (terminal / elimination half-life)", "value": "54.5 ± 2.9", "unit": "min"}, {"measurement": "clearance", "setting": "[2]; dog, plasma, iv, 60 mg/kg, mean of 8 dogs, NAPADE-HCl 60 mg/kg, 15-minute IV infusion, read-out: ClELIMINATION (elimination clearance)", "value": 8.56, "unit": "mL/min/kg"}, {"measurement": "Vd", "setting": "[2]; dog, plasma, iv, 60 mg/kg, mean of 8 dogs, NAPADE-HCl 60 mg/kg, 15-minute IV infusion, read-out: VCENTRAL (volume of the central compartment)", "value": 0.153, "unit": "L/kg"}, {"measurement": "Vd", "setting": "[2]; dog, plasma, iv, 60 mg/kg, mean of 8 dogs, NAPADE-HCl 60 mg/kg, 15-minute IV infusion, read-out: VTOTAL (total apparent volume of distribution)", "value": 0.513, "unit": "L/kg"}, {"measurement": "Cmax at 0.25 h", "setting": "[2]; dog, plasma, NAPADE-HCl 60 mg/kg, 15-minute IV infusion, at 15 minutes, mean ± SEM, read-out: peak NAPADE concentrations (plasma)", "value": "165 ± 18.1", "unit": "µg/mL"}, {"measurement": "Tmax", "setting": "[2]; dog, plasma, NAPADE-HCl 60 mg/kg, 15-minute IV infusion, read-out: time of peak plasma concentrations (converted)", "value": 15, "unit": "min"}, {"measurement": "ClINTERC. (intercompartmental clearance)", "setting": "[2]; individual dogs No. 1-8, one line per dog, NAPADE-HCl 60 mg/kg, 15-minute IV infusion", "value": "7.46 mL/min/kg and 9.99 mL/min/kg and 24.67 mL/min/kg and 9.91 mL/min/kg and 24.12 mL/min/kg and 22.45 mL/min/kg and 9.31 mL/min/kg and 15.77 mL/min/kg"}, {"measurement": "ClELIMINATION (elimination clearance)", "setting": "[2]; [8]", "value": "8.17 mL/min/kg and 4.99 mL/min/kg and 12.61 mL/min/kg and 7.34 mL/min/kg and 13.11 mL/min/kg and 11.54 mL/min/kg and 5.75 mL/min/kg and 5 mL/min/kg"}, {"measurement": "T1/2(BETA) (elimination half-life)", "setting": "[2]; [8]", "value": "60 min and 67 min and 57 min and 56 min and 40 min and 47 min and 54 min"}, {"measurement": "VTOTAL (total apparent volume of distribution)", "setting": "[2]; [8]", "value": "0.447 L/kg and 0.342 L/kg and 0.893 L/kg and 0.476 L/kg and 0.806 L/kg and 0.499 L/kg and 0.293 L/kg and 0.346 L/kg"}, {"measurement": "ClINTERC. (intercompartmental clearance)", "setting": "[2]; mean of 8 dogs, NAPADE-HCl 60 mg/kg, 15-minute IV infusion", "value": 15.46, "unit": "mL/min/kg"}, {"measurement": "ClELIMINATION (elimination clearance)", "setting": "[2]; mean of 8 dogs, NAPADE-HCl 60 mg/kg, 15-minute IV infusion, 60 mg/kg", "value": "8.56 ± 1.2", "unit": "mL/min/kg"}, {"measurement": "duration of inotropic and chronotropic actions", "setting": "cardiac muscle [3]; NAPADE-HCl 60 mg/kg IV", "value": "50 to 90", "unit": "min"}, {"measurement": "duration of significantly increased myocardial force", "setting": "cardiac muscle [3]; NAPADE-HCl 60 mg/kg IV, compared to the control group", "value": 90, "unit": "min"}, {"measurement": "duration of significantly increased heart rate", "setting": "cardiac muscle [3]; NAPADE-HCl 60 mg/kg IV, over control", "value": 50, "unit": "min"}, {"measurement": "time of peak effects (inotropic and chronotropic)", "setting": "cardiac muscle [3]; [7]", "value": 15, "unit": "min"}, {"measurement": "maximum increase in heart rate over baseline", "setting": "cardiac muscle [3]; NAPADE-HCl 60 mg/kg, 15-minute IV infusion, mean ± SEM", "value": "22.2±4.4", "unit": "percent over baseline"}, {"measurement": "maximum increase in myocardial force over baseline", "setting": "cardiac muscle [3]; NAPADE-HCl 60 mg/kg, 15-minute IV infusion, right ventricular, mean ± SEM", "value": "48.9±10", "unit": "percent over baseline"}, {"measurement": "effect on blood pressure (hypotensive effect)", "setting": "cardiac muscle [3]; NAPADE, result in words", "value": "lacks significant hypotensive effects; also recorded: small and statistically insignificant changes in blood pressure; also recorded: without significant changes in systemic arterial pressure"}, {"measurement": "effect on heart rate (chronotropic effect)", "setting": "cardiac muscle [3]; NAPADE, result in words", "value": "positive chronotropic effect; also recorded: significant increases in myocardial force and heart rate; also recorded: significant positive inotropic and chronotropic actions"}, {"measurement": "effect on myocardial force of contraction (inotropic effect)", "setting": "cardiac muscle [3]; NAPADE, result in words", "value": "positive inotropic effects; also recorded: very significant increase in myocardial force of contraction; also recorded: significant increases in myocardial force; also recorded: significant positive inotropic and chronotropic actions"}, {"measurement": "negative inotropic (myocardial depressant) effect after propranolol pretreatment", "setting": "β-adrenergic receptor; NAPADE in the presence of β-adrenergic receptor blockade with propranolol", "value": "lacks negative inotropic effects; also recorded: No such effect was seen"}, {"measurement": "blood pressure effect after propranolol pretreatment", "setting": "β-adrenergic receptor; [9]", "value": "only a mild decrease in blood pressure; also recorded: seemed to potentiate the mild hypotensive actions; also recorded: potentiated the mild hypotensive actions"}, {"measurement": "chronotropic action after propranolol pretreatment", "setting": "β-adrenergic receptor; [9]", "value": "abolishes the positive inotropic and chronotropic actions; also recorded: effectively blocked the positive inotropic and chronotropic actions"}, {"measurement": "inotropic action after propranolol pretreatment", "setting": "β-adrenergic receptor; [9]", "value": "abolishes the positive inotropic and chronotropic actions; also recorded: effectively blocked the positive inotropic and chronotropic actions"}]}
{"compound": "CCN(CC)CCNC(=O)c1ccc(NC(C)=O)cc1", "note": "[NAPA, N-acetylprocainamide]", "values": [{"measurement": "inotropic action after propranolol pretreatment", "setting": "cardiac muscle [4]", "value": "negative inotropic action is apparent"}, {"measurement": "elimination half-life", "setting": "[5]; NAPA in the dog, approximate", "value": "approximately six"}, {"measurement": "elimination clearance", "setting": "[5]; NAPA in the dog", "value": "2.64 ± 0.9", "unit": "mL/min/kg"}, {"measurement": "apparent volume of distribution (Vtotal)", "setting": "[5]; NAPA, previous studies", "value": "1.48 ± 0.16", "unit": "L/kg"}, {"measurement": "effect on blood pressure (hypotensive effect)", "setting": "cardiac muscle [6]", "value": "exhibiting hypotensive effects"}, {"measurement": "effect on heart rate", "setting": "cardiac muscle [6]", "value": "decreasing the heart rate"}, {"measurement": "effect on force of contraction of the heart muscle (inotropic effect)", "setting": "cardiac muscle [6]", "value": "increases the force of contraction of heart muscle; also recorded: positive inotropic effects"}]}
{"compound": "CCN(CC)CCNC(=O)c1ccc(N)cc1", "note": "[procainamide, Procainamide]", "values": [{"measurement": "effect on blood pressure (hypotensive effect)", "setting": "cardiac muscle [6]", "value": "exhibits hypotensive effects"}, {"measurement": "effect on heart rate", "setting": "cardiac muscle [6]", "value": "decreases the heart rate"}, {"measurement": "effect on force of contraction of the heart muscle (inotropic effect)", "setting": "cardiac muscle [6]", "value": "decreases the force of contraction of the heart muscle; also recorded: negative inotropic effect"}]}
